Assay results as given in ChEMBL document CHEMBL1201862, “PubChem BioAssay data set” (2004).
Activity calls are given as the source filed them.

Columns and labels:
[1] = target: Glyceraldehyde-3-phosphate dehydrogenase (Homo sapiens, UniProt P04406)
Bcl-2-related protein A1 [2] = target: T1, Bcl-2-related protein A1 (Mus musculus, UniProt Q07440); assay: small-molecule antagonists of Bfl-1/BH3 interaction – biochemical, TR-FRET, mouse Bfl-1, confirmation (AID 621);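 also: TR-FRET binding of GST-Bfl-1 to FITC-labelled Bid peptide via terbium antibody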
T1 sequence (Q07440 whole entry): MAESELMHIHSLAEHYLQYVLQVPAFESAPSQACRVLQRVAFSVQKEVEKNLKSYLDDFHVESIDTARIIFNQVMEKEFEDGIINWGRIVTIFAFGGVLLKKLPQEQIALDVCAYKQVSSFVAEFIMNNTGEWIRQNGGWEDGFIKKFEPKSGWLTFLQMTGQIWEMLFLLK

Bcl-2-related protein A1 [3] = target: T1, Bcl-2-related protein A1; assay: Bfl-1 binding inhibitors, SAR follow-up, biochemical, fluorescence polarization (AID 1070)
[4] = target: T2, RNA-binding protein pos-1 (Caenorhabditis elegans, UniProt G5EF15); assay: disruptors of C. elegans POS-1 RNA interaction – biochemical, fluorescence polarization, dose response (AID 1964);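 also: purified POS-1 fused to maltose binding protein made in E. coli; potency of compounds blocking POS-1 binding to fluorescent RNA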
T2 sequence (G5EF15 whole entry): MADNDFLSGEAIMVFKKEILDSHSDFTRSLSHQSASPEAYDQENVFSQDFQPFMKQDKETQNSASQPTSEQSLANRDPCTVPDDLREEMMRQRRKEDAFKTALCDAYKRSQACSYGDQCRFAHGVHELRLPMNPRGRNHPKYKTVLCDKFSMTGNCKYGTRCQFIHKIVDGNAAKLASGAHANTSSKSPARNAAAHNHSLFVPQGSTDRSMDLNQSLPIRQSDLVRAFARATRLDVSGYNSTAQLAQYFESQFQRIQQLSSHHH

Bcl-2-related protein A1 [5] = target: T1, Bcl-2-related protein A1; assay: displacement of Bid BH3 peptide from Bfl-1 – biochemical, fluorescence polarization, FITC-Bid, mouse, primary screen (AID 432)
[6] = target: T3, Zinc finger protein mex-5 (Caenorhabditis elegans, UniProt Q9XUB2); assay: potency of MEX-5 RNA-binding blockers – biochemical, C. elegans, fluorescence polarization, dose response (AID 1960)
T3 sequence (Q9XUB2 whole entry): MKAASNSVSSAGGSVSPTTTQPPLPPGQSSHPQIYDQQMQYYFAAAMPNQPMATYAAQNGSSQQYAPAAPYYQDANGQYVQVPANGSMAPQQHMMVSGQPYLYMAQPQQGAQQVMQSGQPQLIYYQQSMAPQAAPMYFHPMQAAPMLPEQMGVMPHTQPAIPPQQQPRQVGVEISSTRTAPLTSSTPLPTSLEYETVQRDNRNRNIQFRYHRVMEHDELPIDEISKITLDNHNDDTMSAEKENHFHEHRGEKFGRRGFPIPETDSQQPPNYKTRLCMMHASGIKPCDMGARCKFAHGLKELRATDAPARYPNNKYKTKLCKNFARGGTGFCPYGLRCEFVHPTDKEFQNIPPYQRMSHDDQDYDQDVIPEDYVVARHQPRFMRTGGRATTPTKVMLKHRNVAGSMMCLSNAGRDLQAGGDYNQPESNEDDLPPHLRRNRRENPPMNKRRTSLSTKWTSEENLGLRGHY

[7] = target: Voltage-gated inwardly rectifying potassium channel KCNH2 (Homo sapiens, UniProt Q12809); assay: concentration-dependent hERG rescue from blockers – cell-based, thallium flux, dose response (AID 2121); type: ADME
NADPH oxidase 1 = NADPH oxidase 1 (Homo sapiens, UniProt Q9Y5S8); assay: Late-stage luminescence-based cell-based dose response assay to identify inhibitors of NADPH oxidase 1 (NOX1): Synthesized analogs 3.; type: functional
Vero = assay: Vero cell viability after compound exposure – synthesized analogs, set II, cytotoxicity control for West Nile virus antiviral project, SAR follow-up (AID 2402); type: functional; details: Chlorocebus sabaeus
cells = details: HEK293
[8] = target: Luciferin 4-monooxygenase (Photinus pyralis, UniProt P08659); assay: inhibition of purified Photinus pyralis luciferase – biochemical, luminescence, dose response (AID 1891)
[9] = Luminescence Cell-Based Dose Confirmation HTS to Identify Inhibitors of Platelet Dense Granule Release. [Related pubchem assays: 1663 (Primary HTS), 1678 (Summary of Project)]; type: functional
Ephrin type-A receptor 4 = Ephrin type-A receptor 4 (Mus musculus, UniProt Q03137); assay: EphA4 ligand-binding antagonists – biochemical, colorimetric, mouse EphA4, primary screen (AID 689); type: functional
[10] = target: Signal transducer and activator of transcription 1-alpha/beta (Homo sapiens, UniProt P42224); assay: inhibition of STAT1 reporter activity – cell-based, NIH 3T3, luciferase reporter, dose response (AID 1396); type: functional
[11] = target: Transitional endoplasmic reticulum ATPase (Homo sapiens, UniProt P55072, C522A); assay: Luminescence counterscreen assay for p97 inhibitors: dose response biochemical high throughput screening assay to identify inhibitors of the C522A mutant p97 ATPase: synthesized compounds. [Related pubchem assays: 1481, 1517, 1551 ]
[12] = target: Transitional endoplasmic reticulum ATPase (Homo sapiens, UniProt P55072); assay: Luminescence dose response biochemical high throughput screening assay for inhibitors of the p97 ATPase: synthesized compounds. [Related pubchem assays: 1481, 1517 ]
[13] = target: RNA-editing ligase 1, mitochondrial (Trypanosoma brucei brucei, UniProt P86926); assay: inhibition of trypanosome RNA editing ligase – biochemical, fluorescence, Trypanosoma brucei, dose response (AID 1117295); type: functional
Phospholipase D2 = Phospholipase D2 (Homo sapiens, UniProt O14939); assay: PLD2 Cellular Concentration Response Study.; type: functional
Phospholipase D1 = target: T4, Phospholipase D1 (Homo sapiens, UniProt Q13393); assay: PLD1 Cellular Concentration Response Study.; type: functional
T4 sequence (Q13393 whole entry): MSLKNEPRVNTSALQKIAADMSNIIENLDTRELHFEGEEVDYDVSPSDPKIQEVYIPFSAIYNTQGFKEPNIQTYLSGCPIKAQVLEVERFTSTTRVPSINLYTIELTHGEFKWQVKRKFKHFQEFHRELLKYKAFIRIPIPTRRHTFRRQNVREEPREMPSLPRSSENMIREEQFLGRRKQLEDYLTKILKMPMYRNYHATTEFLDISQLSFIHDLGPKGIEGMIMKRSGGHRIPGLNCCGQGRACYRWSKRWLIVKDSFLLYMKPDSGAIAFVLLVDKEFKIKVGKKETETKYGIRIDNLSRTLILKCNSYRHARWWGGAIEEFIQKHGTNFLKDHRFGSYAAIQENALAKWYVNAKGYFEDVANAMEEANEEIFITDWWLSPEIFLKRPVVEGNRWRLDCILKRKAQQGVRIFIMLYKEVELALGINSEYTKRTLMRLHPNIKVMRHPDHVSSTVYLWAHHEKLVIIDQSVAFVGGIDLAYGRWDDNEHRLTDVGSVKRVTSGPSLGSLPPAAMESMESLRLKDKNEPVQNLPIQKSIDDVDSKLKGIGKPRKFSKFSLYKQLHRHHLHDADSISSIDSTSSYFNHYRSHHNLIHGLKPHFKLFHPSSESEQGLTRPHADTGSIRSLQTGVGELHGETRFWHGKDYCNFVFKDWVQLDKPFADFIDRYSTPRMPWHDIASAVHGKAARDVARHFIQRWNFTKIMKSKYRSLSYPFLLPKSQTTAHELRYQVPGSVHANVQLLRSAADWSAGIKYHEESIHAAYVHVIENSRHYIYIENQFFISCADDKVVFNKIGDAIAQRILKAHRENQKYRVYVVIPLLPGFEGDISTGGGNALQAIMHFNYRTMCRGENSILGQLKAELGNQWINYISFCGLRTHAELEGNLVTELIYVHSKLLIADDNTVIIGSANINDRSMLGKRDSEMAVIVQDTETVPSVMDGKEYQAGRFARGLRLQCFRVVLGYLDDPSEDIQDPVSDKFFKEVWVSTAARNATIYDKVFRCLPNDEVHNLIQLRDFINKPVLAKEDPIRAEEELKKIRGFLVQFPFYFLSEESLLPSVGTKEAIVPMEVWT

[14] = target: Metabotropic glutamate receptor 7 (Homo sapiens, UniProt Q14831); assay: potentiation of glutamate EC20 at mGlu7 – cell-based, calcium mobilization, Galpha15, dose response (AID 743384); type: functional
[15] = viability loss in Vero cells – cytotoxicity control for Vif-APOBEC3G degradation inhibitor project, dose response (AID 1117358); type: functional; details: Vero
[16] = target: Photoreceptor-specific nuclear receptor (Homo sapiens, UniProt Q9Y5X4); type: functional, cell-based;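 also: CHO-S cells with Gal4-NCOR and VP16-NR2E3 two-hybrid luciferase reporter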
[17] = target: SWI/SNF-related matrix-associated actin-dependent regulator of chromatin subfamily A member 2 (Homo sapiens, UniProt P51531); assay: Luminescence-based cell-based high throughput dose response assay to identify activators of the function of SWI/SNF related, matrix associated, actin dependent regulator of chromatin, subfamily a, member 2 (SMARCA2, BRM).; type: functional
[18] = Counterscreen for activators of the function of SWI/SNF related, matrix associated, actin dependent regulator of chromatin, subfamily a, member 2 (SMARCA2, BRM): Luminescence-based cell-based high throughput dose response assay to identify non-selective compounds using the VP16 reporter assay.; type: functional
[19] = Luminescence-based cell-based high throughput dose response assay to identify activators of the DAF-12 from the parasite S. stercoralis (ssDAF-12).; type: functional
Transthyretin = Transthyretin (Homo sapiens, UniProt P02766); assay: Luminescence-based cell-based high throughput dose response assay to identify activators of Transthyretin (TTR) transcription.; type: functional
Cytochrome P450 2C9 = Cytochrome P450 2C9 (Homo sapiens, UniProt P11712)
[20] = tested on: Streptococcus sp. 'group A'; assay: Streptococcus pyogenes SK(-)GAS viability under kanamycin – luminescence, BacTiterGlo, confirmation, counter-screen for streptokinase expression inhibitor project, dose response (AID 1900); type: functional, organism-based
Streptokinase A = target: T5, Streptokinase A (Streptococcus pyogenes serotype M1, UniProt P10520); assay: viability-normalized secreted streptokinase activity reduction – plasminogen activation absorbance, OD405, dose response (AID 1914); type: functional, Streptococcus pyogenes M1 GAS;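 also: secreted streptokinase activity via plasminogen activation per viability signal from cell pellet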
T5 sequence (P10520 whole entry): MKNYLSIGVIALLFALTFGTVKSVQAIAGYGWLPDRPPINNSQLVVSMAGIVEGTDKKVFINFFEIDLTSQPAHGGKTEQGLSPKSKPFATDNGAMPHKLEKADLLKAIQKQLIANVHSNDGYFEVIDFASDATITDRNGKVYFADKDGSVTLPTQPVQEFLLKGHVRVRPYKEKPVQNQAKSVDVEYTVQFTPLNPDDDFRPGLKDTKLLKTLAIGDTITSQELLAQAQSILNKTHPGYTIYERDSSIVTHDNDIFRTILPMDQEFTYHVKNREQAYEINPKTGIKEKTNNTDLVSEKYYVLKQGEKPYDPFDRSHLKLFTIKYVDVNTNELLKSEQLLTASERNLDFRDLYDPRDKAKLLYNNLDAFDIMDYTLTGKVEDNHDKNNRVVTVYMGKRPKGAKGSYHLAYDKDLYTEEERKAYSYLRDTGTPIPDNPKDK

[21] = target: Aryl hydrocarbon receptor (Homo sapiens, UniProt P35869); assay: Luminescence-based cell-based high throughput dose response assay for activators of the Aryl Hydrocarbon Receptor (AHR). [Related pubchem assays: 2796 (Primary screen (AHR activators in singlicate)), 2845 (Confirmation screen (AHR activators in triplicate)), 434939 (Counterscreen (PXR activators in triplicate)), 2804 (Summary (AHR activators))]; type: ADME
Streptococcus = assay: GAS UMAA2166 growth inhibition – luminescence, BacTiterGlo, counter-screen for streptokinase expression inhibitor project, dose response (AID 1915); type: functional, organism-based;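 also: potency for reduction of bacterial viability or growth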

Transitional endoplasmic reticulum ATPase (Homo sapiens, UniProt P55072, C522A), sequence (P55072 2-806 C522A limits assumed): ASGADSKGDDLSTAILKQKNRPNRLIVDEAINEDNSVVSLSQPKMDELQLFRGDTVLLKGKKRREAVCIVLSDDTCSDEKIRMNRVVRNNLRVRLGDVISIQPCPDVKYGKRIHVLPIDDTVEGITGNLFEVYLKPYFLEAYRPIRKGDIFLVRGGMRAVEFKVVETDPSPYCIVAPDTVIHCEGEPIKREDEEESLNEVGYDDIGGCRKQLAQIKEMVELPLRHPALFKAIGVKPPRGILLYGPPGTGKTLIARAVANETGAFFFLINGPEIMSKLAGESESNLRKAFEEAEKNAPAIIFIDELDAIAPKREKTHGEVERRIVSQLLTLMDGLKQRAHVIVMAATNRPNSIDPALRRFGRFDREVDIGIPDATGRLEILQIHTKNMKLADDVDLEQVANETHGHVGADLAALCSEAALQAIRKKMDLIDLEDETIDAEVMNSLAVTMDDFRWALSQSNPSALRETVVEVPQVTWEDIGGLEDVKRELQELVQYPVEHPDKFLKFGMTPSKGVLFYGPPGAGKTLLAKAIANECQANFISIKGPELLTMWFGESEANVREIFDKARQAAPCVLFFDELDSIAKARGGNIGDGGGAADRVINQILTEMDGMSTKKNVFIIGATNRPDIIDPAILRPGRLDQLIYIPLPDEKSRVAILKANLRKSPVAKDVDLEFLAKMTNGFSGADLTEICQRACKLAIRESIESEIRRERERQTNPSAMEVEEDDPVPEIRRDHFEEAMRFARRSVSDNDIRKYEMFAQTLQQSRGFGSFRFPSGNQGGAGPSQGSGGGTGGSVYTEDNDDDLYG
Aryl hydrocarbon receptor, sequence (P35869 whole entry): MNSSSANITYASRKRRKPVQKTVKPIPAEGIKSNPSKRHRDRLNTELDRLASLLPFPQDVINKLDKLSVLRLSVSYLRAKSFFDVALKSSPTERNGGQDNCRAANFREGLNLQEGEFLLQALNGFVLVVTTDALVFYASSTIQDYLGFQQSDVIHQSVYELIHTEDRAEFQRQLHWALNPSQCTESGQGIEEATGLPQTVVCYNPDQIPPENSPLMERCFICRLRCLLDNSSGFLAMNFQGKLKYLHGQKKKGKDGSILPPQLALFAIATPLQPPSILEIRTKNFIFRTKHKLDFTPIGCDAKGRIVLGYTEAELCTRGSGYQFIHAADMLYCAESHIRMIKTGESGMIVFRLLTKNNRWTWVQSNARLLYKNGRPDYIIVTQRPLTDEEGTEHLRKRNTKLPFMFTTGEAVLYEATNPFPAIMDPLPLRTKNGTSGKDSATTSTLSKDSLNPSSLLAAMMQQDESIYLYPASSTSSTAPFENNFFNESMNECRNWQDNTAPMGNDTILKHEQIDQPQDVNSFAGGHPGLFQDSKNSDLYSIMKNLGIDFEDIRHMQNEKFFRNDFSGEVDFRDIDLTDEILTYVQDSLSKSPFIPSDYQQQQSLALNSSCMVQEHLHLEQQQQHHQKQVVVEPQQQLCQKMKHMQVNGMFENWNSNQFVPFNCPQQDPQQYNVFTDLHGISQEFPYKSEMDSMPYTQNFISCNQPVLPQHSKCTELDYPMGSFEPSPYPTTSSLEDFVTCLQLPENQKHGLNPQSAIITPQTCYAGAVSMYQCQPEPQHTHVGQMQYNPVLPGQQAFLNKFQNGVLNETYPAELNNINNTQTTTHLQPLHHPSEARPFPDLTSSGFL
Ephrin type-A receptor 4, sequence (Q03137 whole entry): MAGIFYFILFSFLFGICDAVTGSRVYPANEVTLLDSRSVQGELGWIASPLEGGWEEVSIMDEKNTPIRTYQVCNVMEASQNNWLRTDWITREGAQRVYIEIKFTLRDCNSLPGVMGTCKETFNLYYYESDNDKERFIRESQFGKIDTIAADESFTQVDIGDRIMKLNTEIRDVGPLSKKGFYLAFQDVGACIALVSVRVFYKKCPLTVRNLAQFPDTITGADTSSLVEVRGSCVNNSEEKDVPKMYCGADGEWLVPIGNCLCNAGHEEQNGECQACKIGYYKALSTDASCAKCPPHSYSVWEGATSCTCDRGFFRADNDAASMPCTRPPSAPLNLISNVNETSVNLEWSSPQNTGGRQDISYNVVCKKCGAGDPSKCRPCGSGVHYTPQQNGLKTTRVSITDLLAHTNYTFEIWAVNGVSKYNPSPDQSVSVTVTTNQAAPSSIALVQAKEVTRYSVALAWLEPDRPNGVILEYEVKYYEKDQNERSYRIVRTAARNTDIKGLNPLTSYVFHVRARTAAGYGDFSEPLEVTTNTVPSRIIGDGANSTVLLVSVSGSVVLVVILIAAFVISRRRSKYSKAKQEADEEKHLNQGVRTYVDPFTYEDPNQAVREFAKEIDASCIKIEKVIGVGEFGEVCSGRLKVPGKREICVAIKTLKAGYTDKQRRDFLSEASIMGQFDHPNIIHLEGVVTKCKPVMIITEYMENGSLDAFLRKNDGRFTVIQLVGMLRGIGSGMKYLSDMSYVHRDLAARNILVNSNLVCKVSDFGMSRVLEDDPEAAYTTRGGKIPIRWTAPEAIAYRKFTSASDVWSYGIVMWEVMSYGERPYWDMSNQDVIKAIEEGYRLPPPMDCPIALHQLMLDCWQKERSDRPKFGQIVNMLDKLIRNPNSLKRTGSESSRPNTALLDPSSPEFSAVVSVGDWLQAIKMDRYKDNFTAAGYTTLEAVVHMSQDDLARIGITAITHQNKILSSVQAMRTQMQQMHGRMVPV
Signal transducer and activator of transcription 1-alpha/beta, sequence (P42224 whole entry): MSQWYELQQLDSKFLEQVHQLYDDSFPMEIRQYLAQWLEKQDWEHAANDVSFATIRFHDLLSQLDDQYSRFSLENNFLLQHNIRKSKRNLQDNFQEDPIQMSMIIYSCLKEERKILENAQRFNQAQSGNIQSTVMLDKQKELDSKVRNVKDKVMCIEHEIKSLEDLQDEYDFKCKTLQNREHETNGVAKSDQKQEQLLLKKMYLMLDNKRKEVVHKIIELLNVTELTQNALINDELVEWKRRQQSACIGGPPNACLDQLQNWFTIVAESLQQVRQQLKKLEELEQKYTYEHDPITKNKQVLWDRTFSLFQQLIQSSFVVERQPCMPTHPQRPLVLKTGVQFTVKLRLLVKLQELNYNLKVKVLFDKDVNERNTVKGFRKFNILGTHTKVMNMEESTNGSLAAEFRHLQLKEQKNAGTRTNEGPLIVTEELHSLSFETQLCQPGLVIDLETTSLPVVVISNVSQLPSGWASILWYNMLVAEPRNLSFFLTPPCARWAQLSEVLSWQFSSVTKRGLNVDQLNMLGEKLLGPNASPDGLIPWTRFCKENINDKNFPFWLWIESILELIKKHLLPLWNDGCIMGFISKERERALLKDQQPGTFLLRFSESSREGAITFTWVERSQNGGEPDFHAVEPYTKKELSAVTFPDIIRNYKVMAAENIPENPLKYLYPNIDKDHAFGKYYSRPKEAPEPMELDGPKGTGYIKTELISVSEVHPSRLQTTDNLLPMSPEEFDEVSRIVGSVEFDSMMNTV
Transitional endoplasmic reticulum ATPase (Homo sapiens, UniProt P55072), sequence (P55072 whole entry): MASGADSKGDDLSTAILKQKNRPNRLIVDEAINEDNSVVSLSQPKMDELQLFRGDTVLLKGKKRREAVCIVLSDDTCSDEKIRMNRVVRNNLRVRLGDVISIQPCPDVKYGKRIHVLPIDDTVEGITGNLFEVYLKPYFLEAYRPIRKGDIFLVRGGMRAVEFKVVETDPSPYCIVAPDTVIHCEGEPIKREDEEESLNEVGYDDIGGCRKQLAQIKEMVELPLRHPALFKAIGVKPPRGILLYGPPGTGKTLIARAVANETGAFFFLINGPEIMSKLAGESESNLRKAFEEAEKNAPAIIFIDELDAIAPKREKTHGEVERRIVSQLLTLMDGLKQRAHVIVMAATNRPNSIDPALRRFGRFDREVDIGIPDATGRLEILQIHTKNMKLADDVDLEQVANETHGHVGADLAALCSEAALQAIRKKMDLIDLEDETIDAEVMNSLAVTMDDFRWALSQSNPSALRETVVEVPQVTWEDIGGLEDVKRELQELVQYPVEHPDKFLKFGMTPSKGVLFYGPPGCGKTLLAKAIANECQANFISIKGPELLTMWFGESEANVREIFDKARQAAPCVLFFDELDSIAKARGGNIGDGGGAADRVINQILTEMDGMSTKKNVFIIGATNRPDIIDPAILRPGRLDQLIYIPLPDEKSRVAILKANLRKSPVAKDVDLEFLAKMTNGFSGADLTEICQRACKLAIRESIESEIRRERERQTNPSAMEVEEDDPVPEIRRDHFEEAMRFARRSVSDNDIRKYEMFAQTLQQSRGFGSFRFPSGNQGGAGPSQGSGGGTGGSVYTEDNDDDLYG
Cytochrome P450 2C9, sequence (P11712 whole entry): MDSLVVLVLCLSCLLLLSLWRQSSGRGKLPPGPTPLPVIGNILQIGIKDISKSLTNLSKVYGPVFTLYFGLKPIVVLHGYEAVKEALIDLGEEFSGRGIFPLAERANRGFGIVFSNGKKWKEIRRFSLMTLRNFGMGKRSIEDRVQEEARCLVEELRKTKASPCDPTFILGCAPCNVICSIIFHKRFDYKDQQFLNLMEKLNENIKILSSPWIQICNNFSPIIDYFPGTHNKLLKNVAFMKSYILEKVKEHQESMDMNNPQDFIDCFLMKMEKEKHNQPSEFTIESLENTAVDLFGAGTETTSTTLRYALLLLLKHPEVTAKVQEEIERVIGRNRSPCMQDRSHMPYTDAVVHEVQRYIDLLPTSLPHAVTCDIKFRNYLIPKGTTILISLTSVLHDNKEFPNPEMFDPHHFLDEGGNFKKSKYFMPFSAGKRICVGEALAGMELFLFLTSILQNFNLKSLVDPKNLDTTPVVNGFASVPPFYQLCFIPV
Glyceraldehyde-3-phosphate dehydrogenase, sequence (P04406 whole entry): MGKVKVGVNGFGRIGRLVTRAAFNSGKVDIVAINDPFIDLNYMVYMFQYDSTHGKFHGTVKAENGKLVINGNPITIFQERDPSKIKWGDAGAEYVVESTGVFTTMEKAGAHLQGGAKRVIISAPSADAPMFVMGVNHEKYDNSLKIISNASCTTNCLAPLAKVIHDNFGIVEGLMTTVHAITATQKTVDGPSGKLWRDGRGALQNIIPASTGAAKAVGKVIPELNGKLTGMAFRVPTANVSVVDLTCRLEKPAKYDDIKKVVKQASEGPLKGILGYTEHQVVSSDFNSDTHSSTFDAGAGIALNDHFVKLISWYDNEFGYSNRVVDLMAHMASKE

Compound: Cc1cccc(N2C(=O)C(Cl)=C(N3CCN(C)CC3)C2=O)c1
- IC50 [1]: > 100 µM (not active)
- IC50 (Bcl-2-related protein A1 [2]): 10.8 µM (active)
- IC50 (Bcl-2-related protein A1 [3]): 12.6 µM (active)

Compound: CN1CC=C2C(C#N)=C(N)C(C#N)(C#N)[C@H](c3cccc(Cl)c3)C2C1 (some centres not stated)
- EC50 [4]: 12.5 µM (active)
- IC50 (Bcl-2-related protein A1 [5]): > 100 µM (not active)
- EC50 [6]: 11.6 µM (active)
- IC50 (Bcl-2-related protein A1 [2]): > 100 µM (not active)

Compound: CCc1nnc(NC(=O)CSc2nc(-c3ccccc3)cc(-c3ccc(OC)cc3)c2C#N)s1
- EC50 [7]: 1.31 µM (active)

Compound: CN1c2ccc(Br)cc2Sc2cc(C(=O)c3ccccc3)ccc21
- IC50 (NADPH oxidase 1): > 20 µM (not active)

Compound: O=c1c2cc(I)ccc2nc2n1CCC2
- CC50 (Vero): > 100 µM (active)

Compound: CC(C)Oc1cccc(OCCn2cnc3ccccc32)c1
- AC50 (cells): > 52 µM (inactive)

Compound: Cc1c(NC(=O)CCN2C(=O)c3ccccc3C2=O)c(=O)n(-c2ccccc2)n1C
- EC50 [8]: > 112 µM (not active)
- EC50 [9]: > 112 µM (not active)
- IC50 (Ephrin type-A receptor 4): > 100 µM (not active)

Compound: Cc1ccc(C2=NN=C(c3ccncc3)c3ccc4ccccc4c3N2)cc1
- IC50 [10]: 3.52 µM (active)

Compound: CCOc1ccc(-c2csc(Nc3ccc(C#N)cc3)n2)cc1
- IC50 [11]: > 50 µM (not active)
- IC50 [12]: > 50 µM (not active)

Compound: COC(=O)C1=C(C)N(Cc2cccc(C(F)(F)F)c2)C(NCc2ccc(OC)cc2)=NC1c1ccc(F)cc1 (configuration not stated)
- IC50 [13]: > 96.6 µM (inactive)

Compound: O=C(NCCN1CCC2(CC1)C(=O)NCN2Cc1ccccc1Cl)c1ccc2ccccc2c1
- IC50 (Phospholipase D2): 0.11 µM (active)
- IC50 (Phospholipase D1): 2.3 µM (active)

Compound: COC(=O)c1ccc(-n2c(C)cc(C(=O)CSCc3ccc(OC)cc3)c2C)cc1
- EC50 [14]: 1 µM (active)

Compound: CCOc1cc(C)c(Cl)cc1S(=O)(=O)NCc1ccco1
- CC50 [15]: 27.7 µM (active)

Compound: Cc1cnc(NC(=O)CCCc2nc3ccccc3s2)s1
- IC50 [16]: 0.563 µM (active)
- EC50 [17]: > 91.2 µM (inactive)
- EC50 [18]: > 91.2 µM (inactive)
- IC50 [19]: > 67.5 µM (inactive)
- EC50 (Transthyretin): > 167 µM (inactive)
- AC50 (Cytochrome P450 2C9): 5.62 µM (inconclusive)

Compound: O=C(Nc1cccnc1)Nc1cc(Cl)cc(Cl)c1
- EC50 [20]: 7.83 µM (active)
- EC50 (Streptokinase A): > 150 µM (not active)
- EC50 [21]: > 1.13 µM (active)
- EC50 (Streptococcus): 85.4 µM (active)
